Reference: patent EP1621203A1, “RNAIII-inhibiting peptides for treating HIV infection” (Genoscience, priority 2004, dated 2006)
Where a name gives a salt, the structure may show the parent alone. Read-outs that look alike come from different tables or passages of the source. Where a SMILES comes first, the peptide text is derived from it. Bridges are numbered along the chain shown (N, C = ends). Roman numbers before positions name the chains, in order. Where no end group is shown, it is not given here. [ ]: non-standard residue; d: D form. Ava = NCCCCC(=O)O

How the values were obtained:
HIV-1 NL4-3 [1] = assay type: cell-based; conditions: for IC50: NL4-3
Description: (§1) Cell cultures - Human peripheral blood lymphocytes (PBL) obtained from healthy HIV-seronegative donors were isolated by Ficoll-Hypaque gradient centrifugation and maintained in RPMI 1640 with ultraglutamine supplemented with […], 100 U/ml penicillin and […] streptamycin, and 10% heat-inactivated fetal calf serum. Cells were stimulated three days in the medium supplemented with 20 U/ml phytohemagglutinin P before evaluation of the antiviral activity. The human C8166 T-cell line was maintained in RPMI 1640 supplemented with 100 U/ml penicillin and […] streptamycin, and 10% heat-inactivated fetal calf serum.
(§2) Evaluation of antiviral activity on human immune cells - Samples of 3 x 10^5 human PBL in […] are preincubated in 96-well plates with various concentrations of each peptide at 37°C (incubator flushed with 5% CO2). After 1 hour incubation, […] of viral suspension (HIV-1 NL4-3 strain) was added at a multiplicity of infection of 1,000 TCID50 per ml. After three washings, cells were cultured in 24-well plates with 1 ml of RPMI 1640 in the continuous presence of the peptides. The cell culture medium was replaced at day 4 post-infection. During this assay, treatment with antiviral compounds was permanent (before, during and after infection). Toxicity was evaluated through daily cell counts and trypan-blue exclusion assays. Infection of human PBL was assessed daily by virus-induced cytopathic effects (syncytium formation) and after 14 days by quantification of p24 antigen in culture supernatants. Measurements of HIV-1 p24 concentrations in the culture supernatant were achieved by ELISA with a detection cut-off of 5 pg/ml (p24 HIV kit, Perkin-Elmer). Similar assays were performed with human C8166 T-cells. Data on PBL are the mean of two separate experiments realized in duplicate.

HIV-1 NL4-3 [2] = experiment: Infection assay on human PBL with HIV-1 NL4-3 (syncytium formation, p24 antigen ELISA); assay type: cell-based; conditions: Human immunodeficiency virus 1, NL43, HIV-1 NL4-3 (1,000 TCID50), peptides continuously present; for IC50: read-out: IC50 (50% inhibitory concentration); for IC100: read-out: IC100 (100% inhibitory concentration)
Description: as §1, §2

Row | Molecule | IC50 (HIV-1 NL4-3 [1]) [nM] | IC100 (100% inhibitory concentration) (HIV-1 NL4-3 [1]; human PBL, HIV-1 NL4-3 (1,000 TCID50), peptides continuously present) [µM] | IC50 (HIV-1 NL4-3 [2]) [nM] | IC100 (HIV-1 NL4-3 [2]) [µM]
1 | C[C@@H](O)[C@H](NC(=O)[C@H](Cc1c[nH]c2ccccc12)NC(=O)[C@@H]1CCCN1C(=O)[C@H](CO)NC(=O)[C@@H](N)Cc1ccc(O)cc1)C(=O)N[C@@H](CC(N)=O)C(=O)N[C@@H](Cc1ccccc1)C(=O)NCCCCC(N)=O [YSPWTNF-valerate-NH2] (H-YSPWTNF[Ava]-NH2; N-terminus assumed) | 500 | > 5 |  | 
2 | Nc1ccn([C@@H]2CS[C@H](CO)O2)c(=O)n1 [Epivir®, Lamivudine] |  |  | 50 | 0.5
3 | YSPITNF-NH2 [YSPITNF-NH2] | 300 |  |  | 
4 | C[C@@H](O)[C@H](NC(=O)[C@H](Cc1c[nH]c2ccccc12)NC(=O)[C@@H]1CCCN1C(=O)[C@H](CO)NC(=O)[C@@H](N)Cc1ccc(O)cc1)C(=O)N[C@@H](CC(N)=O)C(=O)N[C@@H](Cc1ccccc1)C(=O)NCCCC[C@H](NC(=O)[C@H](Cc1ccccc1)NC(=O)[C@H](CC(N)=O)NC(=O)[C@@H](NC(=O)[C@H](Cc1c[nH]c2ccccc12)NC(=O)[C@@H]1CCCN1C(=O)[C@H](CO)NC(=O)[C@@H](N)Cc1ccc(O)cc1)[C@@H](C)O)C(=O)NCCCC[C@H](NC(=O)[C@H](CCCCNC(=O)[C@H](Cc1ccccc1)NC(=O)[C@H](CC(N)=O)NC(=O)[C@@H](NC(=O)[C@H](Cc1c[nH]c2ccccc12)NC(=O)[C@@H]1CCCN1C(=O)[C@H](CO)NC(=O)[C@@H](N)Cc1ccc(O)cc1)[C@@H](C)O)NC(=O)[C@H](Cc1ccccc1)NC(=O)[C@H](CC(N)=O)NC(=O)[C@@H](NC(=O)[C@H](Cc1c[nH]c2ccccc12)NC(=O)[C@@H]1CCCN1C(=O)[C@H](CO)NC(=O)[C@@H](N)Cc1ccc(O)cc1)[C@@H](C)O)C(N)=O [(YSPWTNF)4-K2-K-NH2] (I: H-YSPWTNFKK-NH2 / II: H-YSPWTNFK / III: H-YSPWTNF / IV: H-YSPWTNF; amide I:8-IV:C, I:9-II:C, II:8-III:C) | 1000 |  |  | 
5 | CC(C)(C)NC(=O)[C@@H]1CN(Cc2cccnc2)CCN1C[C@@H](O)C[C@@H](Cc1ccccc1)C(=O)N[C@H]1c2ccccc2C[C@H]1O [Crixivan®, Indinavir Sulfate] |  |  | 70 | 0.5
6 | YSPWTNF-NH2 [YSPWTNF-NH2] | 10 |  |  | 
7 | C[C@H](O)[C@@H](NC(=O)[C@@H](Cc1c[nH]c2ccccc12)NC(=O)[C@H]1CCCN1C(=O)[C@@H](CO)NC(=O)[C@H](N)Cc1ccc(O)cc1)C(=O)N[C@H](CC(N)=O)C(=O)N[C@H](Cc1ccccc1)C(N)=O [YdSdPdWdTdNdFd-NH2] (H-[dY][dS][dP][dW][dT][dN][dF]-NH2) | 5000 |  |  | 
